Experimental data published in patent publication US20130065227A1, “METHODS OF INCREASING MACROPINOCYTOSIS IN CANCER CELLS” (priority 2010, published 2013).

Assays:
Assay type in all cases: cell-based
U937 leukemia cells = assay: Cell death mechanism (DNA laddering, immunoblotting, electron microscopy)
Description: (A) Trypan blue staining of U937 leukemia cells showing percentage of dead cells (trypan blue positive) over time. (B) U937 cells were untreated (Un) or treated with 1 μM AS1411 (1411) or control oligonucleotide (Ctrl) for 72 h. DNA was extracted, electrophoresed on an agarose gel and stained with ethidium bromide to probe DNA laddering. As a positive control, […] were treated with UV irradiation to induce apoptosis as previously described. […] (D) U937 cells treated as described for panel B, followed by protein extraction and immunoblotting (IB) to detect PARP cleavage and Caspase-3 activation. (E) DU145 prostate cancer cells were incubated with 10 μM of AS1411 for 24 h, or irradiated with UV (300 J/m^2 with UV Stratalinker 2400, Strategene), then cultured in fresh medium for 6 h. Assessment of cell death was carried out by flow cytometry to detect Annexin V-FITC binding and PI staining.

DU145 cells = assay: Uptake of fluorescently labeled duplex siRNA after AS1411 pre-treatment; settings: 10 μM, 48 h
Source text: FIG. 18 is a graph showing the uptake of siRNA in the presence of AS1411.
(§1) Furthermore, due to the unique properties of MPsomes, delivery by MP leads to increased functional activity. Thus, treatment with AS1411, followed by administration of an anticancer siRNA, for example, leads to a synergistic increase in anticancer effects without harming normal cells. Another strategy to potentiate the effects of AS1411 is to combine it with agents that promote MP and activation of Rac. This leads to increased macropinocytic uptake of AS1411 and/or enhanced methuosis.

RWPE1 = assay: Cell response to AS1411; settings: Non-cancer, prostate epithelial
Source text: (§2) It has recently been discovered that AS1411 can stimulate macropinocytosis (MP) in cancer cells and this finding was verified by several different methods and in multiple cancer cell lines (Table 1).

SK-N-DZ = assay: Cell response to AS1411; settings: Cancer, neuroblastoma
Source text: as §2

MCF7 [1] = assay: Cell response to AS1411; settings: Cancer, breast
Source text: as §2

CHO = assay: Cell response to AS1411; settings: Non-cancer, hamster ovary
Source text: as §2

RCC4 = assay: Cell response to AS1411; settings: Cancer, renal cell
Source text: as §2

BEAS2B = assay: Cell response to AS1411; settings: Non-cancer, lung epithelial
Source text: as §2

MDA-MB-231 [2] = assay: Cell response to AS1411; settings: Cancer, breast
Source text: as §2

A549 = assay: Cell response to AS1411; settings: Cancer, non-small cell lung
Source text: as §2

DU145 = assay: Cell response to AS1411
Source text: as §2

cancer cells = assay: Stimulation of macropinocytosis / induced uptake
Source text: A number of additional G-rich oligonucleotides were obtained and used to evaluate whether or not macropinocytosis was increased in cancer cells using the methodology described herein. For example, the following sequences were used:
In addition, the G-rich oligonucleotides disclosed in Dapic et al. (2003, Nuc. Acids Res.,31:2097 -107; KS-A though KS-I) and the G-rich oligonucleotides (e.g., telomere homologs, GT oligonucleotides, Stat3 binders, Dz13, and triplex oligonucleotides with aptameric effects) disclosed in Bates et al. (2009, Exp. Mol. Path., 86:151-64) and references therein are shown to stimulate macropinocytosis in cancer cells.
as §1

MCF7 [3] = assay: Uptake of AS1411 by macropinocytosis (MP); settings: MCF7; Cancer, breast
Source text: (§3) There was little effect of amiloride treatment on uptake of FL-CRO in either DU145 cancer cells or non-malignant Hs27 cells (FIG. 9B). […] These studies also confirmed the previous results that there was higher overall uptake of FL-AS1411 in Hs27 cells than in DU145 cells.
as §2

MDA-MB-231 [4] = assay: Uptake of AS1411 by macropinocytosis (MP); settings: MDA-MB-231; Cancer, breast
Source text: as §3, §2

**Q.** What does the source list for “5′-d(GGTGGTGGTGGTTGTGGTGGTGGTGG) [AS1411]”?
**A.** effect on DNA replication and cell division (U937 leukemia cells): inhibited DNA replication and cell division; effect on protein synthesis (U937 leukemia cells): not inhibited; induction of apoptosis markers (U937 leukemia cells; 1 μM, 72 h, UV irradiation as positive control): does not induce DNA laddering, PARP cleavage, or Caspase-3 activation; cell death morphology in electron micrographs (U937 leukemia cells; 72 h): necrosis-like cell death; siRNA delivery after pre-treatment (DU145 cells): substantial increase in siRNA delivery; Cells respond? (RWPE1): No; Cells respond? (SK-N-DZ): Yes; Cells respond? (MCF7 [1]): Yes; Cells respond? (CHO): No; Cells respond? (RCC4): Yes; Cells respond? (BEAS2B): No; Cells respond? (MDA-MB-231 [2]): Yes; Cells respond? (A549): Yes; sensitivity of cells to AS1411 (DU145): sensitive; Cells respond? (DU145; DU145, Cancer, prostate): Yes; induced uptake from the culture medium after pre-treatment (cancer cells): induced uptake of dextran, AS1411, or transferrin (by MP); Update by MP? (MCF7 [3]): Yes; Update by MP? (MDA-MB-231 [4]): Yes
